Read-outs that look alike come from different tables or passages of the source. In the oligonucleotide strings, read from the 5' end, every base follows the letter of its sugar. An asterisk marks phosphorothioate; unmarked linkages are phosphodiester. Other units and linkages are bracketed, terminal groups are in braces. A string of capitals states the bases alone. e = 2'-O-(2-methoxyethyl) (MOE); [5mC] = 5-methylcytosine; d = 2'-deoxy (DNA)
What was measured:
HSF-1 = assay: HSE-luciferase assay of HSF-1 activity; type: cell-based, human
Experimental: FIG. 3. CLU induction following Hsp90 inhibitor treatment is cytoprotective via an increase of HSF-1 activity. A, LNCaP cells were treated with indicated concentrations of Hsp90i-1 or Hsp90i-2 for 48 h. B, LNCaP cells were transiently transfected with indicated concentrations of CLU-plasmid for 48 h. Total amount of plasmid DNA transfected was normalized to 2 μg per well by the addition of an empty vector. C (Top), LNCaP cells were transfected with 20 nM CLU siRNA or control siScr, followed of Hsp90i-1 or Hsp90i-2 treatment (1 μM) for 48 h. C (bottom), LNCaP cells were treated twice with 300 nM custirsen or control ScrB ASO. D, LNCaP and PC-3 cells were treated twice with 300 nM custirsen or control ScrB ASO, followed by 1 μM of Hsp90i-1 or Hsp90i-2 for 48 h. Cells were harvested, and HSE-luciferase activity or western blotting analyses were performed. Means of at least three independent experiments done in triplicate. ***, p<0.001; *, p<0.05; ns, not significant.
LNCaP and C4-2 cells (2.5×10^5) were plated on six-plates and transfected using lipofectin (6 μL per well; Invitrogen Life Technologies, Inc.). The total amount HSE plasmids DNA used were normalized to 1 μg per well by the addition of a control plasmid. One μM HSP90i-2 or Hsp90i-1 was added 4 h after the transfection and for 48 h. HSE-luciferase activity was measured using Dual-Luciferase Reporter Assay System (Promega) with the aid of a microplate luminometer (EG&G Berthold). All experiments were carried out in triplicate wells and repeated 3 times using different preparations of plasmids.

[1] = 60 mg/kg/day (Glaze et al., 2005); cited from earlier work
[2] = system: castrate resistant LNCaP tumors; settings: 50 mg/kg monotherapy, previous study (Lamoureux et al., 2011); cited from earlier work
[3] = system: castrate resistant LNCaP tumors; assay: Castrate resistant LNCaP xenograft model; type: in vivo; settings: for tumor volume: Hsp90i-2-PRO 25 mg/kg oral, ASO 15 mg/kg i.p.
Experimental: FIG. 6. […] Mice were treated with 25 mg/kg Hsp90i-2-PRO and 15 mg/kg custirsen starting when serum PSA values relapsed to pre-castration levels. […] Progression-free survival was defined as time for the first tumor volume doubling.
FIG. 7. […] A, tumors were collected after 57 days and CLU, Ki67, AR, AKT and TUNEL were evaluated by immunohistochemical analysis (original magnification: ×200). B, total proteins were extracted from the xenograft tumors and CLU, AR, Akt and PSA were analyzed by western blotting. The relative levels were normalized with vinculin and estimated in densitometric units±SEM.
(§1) Male athymic nude mice (Harlan Sprague-Dawley, Inc.) were injected s.c. with 2×10^6 LNCaP cells (suspended in 0.1 mL Matrigel; BD Biosciences). The mice were castrated once tumors reach between 300 and 500 mm^3 or the PSA level increased above 50 ng/mL. Once tumors progressed to castrate resistance, mice were randomly assigned to vehicle, Hsp90i-2-PRO alone, Hsp90i-2-PRO+ScrB ASO or Hsp90i-2-PRO+custirsen. Hsp90i-2-PRO (Prodrug, 25 mg/kg; formulation in 0.5% CMC+0.5% Tween-80) is orally administered three times per week and custirsen or ScrB ASO (15 mg/kg) was injected intra-peritoneally once daily for the first week and then three times per week. Each experimental group consisted of 10 mice. Tumor volume was measured twice weekly (length×width×depth×0.5432). Serum PSA was determined weekly by enzymatic immunoassay (Abbott IMX, Montreal, Quebec, Canada). PSA doubling time (PSAdt) and velocity were calculated by the log-slope method (PSAt=PSAinitial×emt). Data points were expressed as average tumor volume±SEM or average PSA concentration±SEM.
When tumor volume reached 10% of body weight, mice were sacrificed and tumors harvested for evaluation of protein expression by western blotting analyses and immunohistochemistry. All animal procedures were performed according to the guidelines of the Canadian Council on Animal Care and appropriate institutional certification.
Immunohistochemical stains were performed on formalin-fixed and paraffin-embedded 4 μm sections of tumor samples using adequate primary antibody, and the Ventana autostainer Discover XT (Ventana Medical System) with enzyme labeled biotin streptavidin system and solvent resistant 3,3′-diaminobenyidine Map kit. All comparisons of staining intensities were made at 200× magnifications.

Hsp70 = Hsp70 expression in CRPC LNCaP xenografts (immunohistochemistry); type: in vivo, mice; settings: 50 mg/kg Hsp90i-2-PRO for 6 weeks
Experimental: (§2) FIG. 2. Hsp90i-2 induces HSP and CLU expression in PCa xenografts. Mice were treated for 6 weeks with 50 mg/kg Hsp90i-2-PRO (the prodrug of Hsp90i-2) or vehicle (Control). A, tumors were collected and CLU and Hsp70 were evaluated by immunohistochemical analysis. B, total proteins were extracted from the xenograft tumors and CLU expression was analyzed by western blotting. The relative levels were normalized with GAPDH and estimated in densitometric units. ***, p<0.001.
as §1, with “Hsp90i-2-PRO (Prodrug, 25 mg/kg; formulation in 0.5% CMC+0.5% Tween-80) is orally administered three times per week and custirsen or ScrB ASO (15 mg/kg) was injected intra-peritoneally once daily for the first week and then three times per week. Each experimental group consisted of 10 mice.” left out, “concentration±SEM. […]” for “concentration±SEM.”

CLU [4] = assay: CLU expression in CRPC LNCaP xenografts (immunohistochemistry and western blot); type: in vivo, mice; settings: 50 mg/kg Hsp90i-2-PRO for 6 weeks
Experimental: as §2
as §1, with “Hsp90i-2-PRO (Prodrug, 25 mg/kg; formulation in 0.5% CMC+0.5% Tween-80) is orally administered three times per week and custirsen or ScrB ASO (15 mg/kg) was injected intra-peritoneally once daily for the first week and then three times per week. Each experimental group consisted of 10 mice.” left out, “concentration±SEM. […]” for “concentration±SEM.”

[5] = Toxicity of Hsp90 inhibitor monotherapy; type: in vivo; settings: 50 mg/kg/day
LNCaP cells = assay: Apoptosis assays: propidium iodide flow cytometry (subG1) and western blotting; type: cell-based, human; settings: 300 nM custirsen or ScrB twice, then 1 μM Hsp90 inhibitor
Experimental: FIG. 4. Increased potency of CLU knockdown and Hsp90 inhibitor combination treatment in PCa cells. A, LNCaP cells were treated twice with 300 nM custirsen or control ScrB ASO, followed by the indicated concentration of Hsp90i-1 or Hsp90i-2 for 48 h. Cell growth was determined by crystal violet and compared with control. B, dose dependent effects and combination index (CI) values calculated by CalcuSyn software were assessed in LNCap cells treated for 48 h with custirsen alone, Hsp90i-2 alone or combined treatment at indicated concentration with constant ratio design between both drugs. […] C and D, LNCaP cells were treated twice with 300 nM custirsen or control ScrB, followed by 1 μM Hsp90i-1 or Hsp90i-2 for 48 h. […] The proportion of cells in subG1, G0-G1, S, G2-M was determined by propidium iodide staining and caspase-3 activity was determined on the cell lysates and the results are expressed in arbitrary units and corrected for protein content (D). […]
Prostate cells lines were plated in appropriate media (DMEM or RPMI) with 5% FBS and treated with Hsp90i-2-PRO or Hsp90i-1 at indicated concentration and time and cell growth was measured using the crystal violet assay as described previously (Leung et al., 2000). Detection and quantitation of apoptotic cells were done by flow-cytometry (described below) and western blotting analysis. […]

CLU [6] = settings: Phase II studies (Chi et al., 2005); cited from earlier work
[7] = LNCaP cells, Hsp90 inhibitor at indicated concentrations 48 h, dose-dependent

C=CCNC1=C2C[C@@H](C)C[C@H](OC)[C@H](O)[C@@H](C)/C=C(\C)[C@H](OC(N)=O)[C@@H](OC)/C=C\C=C(/C)C(=O)NC(=CC1=O)C2=O [Hsp90i-1, 17-allylamino-17-demethoxygeldanamycin]
HSF-1 activity (HSF-1; [7]): significantly induced | toxicity as monotherapy [1]: hepatotoxicity

CC1(C)CC(=O)c2c(C(F)(F)F)nn(-c3ccc(C(N)=O)c(NC4CCC(O)CC4)c3)c2C1 (centres unmarked) [Hsp90i-2, 4-(6,6-Dimethyl-4-oxo-3-trifluoromethyl-4,5,6,7-tetrahydro-indazol-1-yl)-2-(4-hydroxy-cyclohexylamino)-benzamide]
HSF-1 activity (HSF-1; [7]): significantly induced

CC1(C)CC(=O)c2c(C(F)(F)F)nn(-c3ccc(C(N)=O)c(NC4CCC(OC(=O)CN)CC4)c3)c2C1 (centres unmarked) [Hsp90i-2-PRO]
LNCaP CRPC tumor progression [2]: inhibited | tumor volume ([3]; 7 weeks post treatment): 2483.6 mm^3 | tumor volume ([3]; at 10 days): 646.4 mm^3 | overall survival ([3]; by day 57): all mice died or were euthanized | mean PSA level ([3]; serum, after 42 days): 527 ng/mL | tumor volume / tumor progression ([3]; sub-therapeutic dose of 25 mg/kg/day HSP90i-2-PRO): marginal, non-significant decreases | effect on serum PSA levels ([3]; sub-therapeutic dose of 25 mg/kg/day, monotherapy): no effect | Hsp70 increase compared with vehicle treated tumor (Hsp70): 2.3 fold | CLU expression increase compared with vehicle treated tumor (CLU [4]): 4 fold | toxicity as monotherapy [5]: body weight loss

control ScrB ASO: scrambled control oligonucleotide with 2′-O-(2-methoxy)ethyl modification, 5′-CAGCGCTGACAACAGTTTCAT-3′ (SEQ ID NO: 44) (2'-O-methoxyethyl modified, pattern not given here)
apoptotic rates (subG1 fraction) (LNCaP cells): 4.2%

custirsen: antisense oligonucleotide reducing clusterin expression, CAGCAGCAGAGTCTTCATCAT (SEQ ID NO: 3), phosphorothioate backbone, 2′-O-methoxyethyl wings (antisense e[5mC]*eA*eG*e[5mC]*dA*dG*dC*dA*dG*dA*dG*dT*dC*dT*dT*dC*dA*eT*e[5mC]*eA*eT; listed as Homo sapiens)
HSF-1 activity (HSF-1; LNCaP cells treated twice with 300 nM custirsen vs control ScrB ASO): significantly decreased | apoptotic rates (subG1 fraction) (LNCaP cells): 17.4% | inhibition of CLU in human prostate cancer tissues (CLU [6]): > 90%

— patent US9457045B2, “Combination of anti-clusterin oligonucleotide with Hsp90 inhibitor for the treatment of prostate cancer” (The University of British Columbia, priority 2011, dated 2016)
